≈ marks a conversion by molar mass, not a printed value. Blank lines part the entries; values can stand above or below the compound they belong to.
Assays:
[1] = system: Escherichia coli ATCC 25922; details: E.coli, cited from earlier work
[2] = system: Escherichia coli (ATCC 25922); assay: Antibiotic susceptibility by glucose consumption in culture medium, blood culture bottle inoculum (Example 1); type: cell-based; details: for Glucose concentration t=0: 0 minutes; for Glucose concentration t=60: 60 minutes; for Glucose concentration t=120: 120 minutes; for Glucose concentration t=180: 180 minutes; for dC/dT: rate of change in glucose concentration; for Glucose concentration t=240: 240 minutes;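 on dC/dT: rate calculated between the 60 and 180 min readings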
Method in brief: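 Bacteria grown in blood culture bottles until positive, diluted 1:100 into cation-adjusted Mueller-Hinton broth with glucose at 1.0 mg/mL plus antibiotic (µg/mL). Glucose read by glucometer at 0–240 min.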

[3] = system: Enterococcus faecalis ATCC 29212; details: E.faecalis, cited from earlier work
[4] = range obtained by EUCAST from ISO 20776-1: 2006
[5] = reference MIC value, EUCAST QC tables Version 7.0, 2017

MIC ([2]; Escherichia coli, ATCC25922, E.coli, 80% threshold of rate of change vs reference, between 60 and 180 minutes, obtained in 4 hours, read-out: MIC Measured): 4 µg/mL (≈ 9.36 µM)
Compound: CO[C@@]1(NC(=O)Cc2cccs2)C(=O)N2C(C(=O)O)=C(COC(N)=O)CS[C@@H]21 [Cefoxitin]
MIC EUCAST, range in parentheses [1, 4]: 2 to 8 µg/mL | MIC EUCAST [1, 5]: 4 µg/mL (≈ 9.36 µM) | F=the rate of change in glucose concentration in relation to the reference ([2]; [Ab] 0,5 µg/mL): 139% | Glucose concentration t=0 ([2]; [Ab] 0,5 µg/mL): 139 | Glucose concentration t=60 ([2]; [Ab] 0,5 µg/mL): 154 | Glucose concentration t=120 ([2]; [Ab] 0,5 µg/mL): 140 | Glucose concentration t=180 ([2]; [Ab] 0,5 µg/mL): 54 | dC/dT ([2]; [Ab] 0,5 µg/mL): 86 | F=the rate of change in glucose concentration in relation to the reference ([2]; [Ab] 0,25 µg/mL): 165% | Glucose concentration t=0 ([2]; [Ab] 0,25 µg/mL): 145 | Glucose concentration t=60 ([2]; [Ab] 0,25 µg/mL): 157 | Glucose concentration t=120 ([2]; [Ab] 0,25 µg/mL): 143 | Glucose concentration t=180 ([2]; [Ab] 0,25 µg/mL): 41 | dC/dT ([2]; [Ab] 0,25 µg/mL): 102 | F=the rate of change in glucose concentration in relation to the reference ([2]; [Ab] 1 µg/mL): 129% | Glucose concentration t=0 ([2]; [Ab] 1 µg/mL): 144 | Glucose concentration t=60 ([2]; [Ab] 1 µg/mL): 150 | Glucose concentration t=120 ([2]; [Ab] 1 µg/mL): 143 | Glucose concentration t=180 ([2]; [Ab] 1 µg/mL): 63 | dC/dT ([2]; [Ab] 1 µg/mL): 80 | F=the rate of change in glucose concentration in relation to the reference ([2]; [Ab] 2 µg/mL): 102% | Glucose concentration t=0 ([2]; [Ab] 2 µg/mL): 143 | Glucose concentration t=60 ([2]; [Ab] 2 µg/mL): 163 | Glucose concentration t=120 ([2]; [Ab] 2 µg/mL): 138 | Glucose concentration t=180 ([2]; [Ab] 2 µg/mL): 75 | dC/dT ([2]; [Ab] 2 µg/mL): 63 | F=the rate of change in glucose concentration in relation to the reference ([2]; [Ab] 4 µg/mL): 19% | Glucose concentration t=0 ([2]; [Ab] 4 µg/mL): 146 | Glucose concentration t=60 ([2]; [Ab] 4 µg/mL): 149 | Glucose concentration t=120 ([2]; [Ab] 4 µg/mL): 140 | Glucose concentration t=180 ([2]; [Ab] 4 µg/mL): 125 | Glucose concentration t=240 ([2]; [Ab] 4 µg/mL): 116 | dC/dT ([2]; [Ab] 4 µg/mL): 12 | F=the rate of change in glucose concentration in relation to the reference ([2]; [Ab] 8 µg/mL): 18% | Glucose concentration t=0 ([2]; [Ab] 8 µg/mL): 145 | Glucose concentration t=60 ([2]; [Ab] 8 µg/mL): 164 | Glucose concentration t=120 ([2]; [Ab] 8 µg/mL): 149 | Glucose concentration t=180 ([2]; [Ab] 8 µg/mL): 132 | Glucose concentration t=240 ([2]; [Ab] 8 µg/mL): 127 | dC/dT ([2]; [Ab] 8 µg/mL): 11 | F=the rate of change in glucose concentration in relation to the reference ([2]; [Ab] 16 µg/mL): 6% | Glucose concentration t=0 ([2]; [Ab] 16 µg/mL): 142 | Glucose concentration t=60 ([2]; [Ab] 16 µg/mL): 152 | Glucose concentration t=120 ([2]; [Ab] 16 µg/mL): 152 | Glucose concentration t=180 ([2]; [Ab] 16 µg/mL): 141 | Glucose concentration t=240 ([2]; [Ab] 16 µg/mL): 145 | dC/dT ([2]; [Ab] 16 µg/mL): 4 | F=the rate of change in glucose concentration in relation to the reference ([2]; [Ab] 32 µg/mL): 5% | Glucose concentration t=0 ([2]; [Ab] 32 µg/mL): 146 | Glucose concentration t=60 ([2]; [Ab] 32 µg/mL): 150 | Glucose concentration t=120 ([2]; [Ab] 32 µg/mL): 143 | Glucose concentration t=180 ([2]; [Ab] 32 µg/mL): 142 | Glucose concentration t=240 ([2]; [Ab] 32 µg/mL): 137 | dC/dT ([2]; [Ab] 32 µg/mL): 3

Compound: CN[C@H](CC(C)C)C(=O)N[C@H]1C(=O)N[C@@H](CC(N)=O)C(=O)N[C@H]2C(=O)N[C@H]3C(=O)N[C@H](C(=O)N[C@H](C(=O)O)c4cc(O)cc(O)c4-c4cc3ccc4O)[C@H](O)c3ccc(c(Cl)c3)Oc3cc2cc(c3O[C@@H]2O[C@H](CO)[C@@H](O)[C@H](O)[C@H]2O[C@H]2C[C@](C)(N)[C@H](O)[C@H](C)O2)Oc2ccc(cc2Cl)[C@H]1O [Vancomycin]
F=the rate of change in glucose concentration in relation to the reference ([2]; [Ab] 0,5 µg/mL): 65% | Glucose concentration t=60 ([2]; [Ab] 0,5 µg/mL): 149 | Glucose concentration t=120 ([2]; [Ab] 0,5 µg/mL): 145 | Glucose concentration t=180 ([2]; [Ab] 0,5 µg/mL): 68 | dC/dT ([2]; [Ab] 0,5 µg/mL): 41 | F=the rate of change in glucose concentration in relation to the reference ([2]; [Ab] 0,25 µg/mL): 68% | Glucose concentration t=60 ([2]; [Ab] 0,25 µg/mL): 150 | Glucose concentration t=120 ([2]; [Ab] 0,25 µg/mL): 145 | Glucose concentration t=180 ([2]; [Ab] 0,25 µg/mL): 66 | dC/dT ([2]; [Ab] 0,25 µg/mL): 42 | F=the rate of change in glucose concentration in relation to the reference ([2]; [Ab] 1 µg/mL): 73% | Glucose concentration t=60 ([2]; [Ab] 1 µg/mL): 155 | Glucose concentration t=120 ([2]; [Ab] 1 µg/mL): 149 | Glucose concentration t=180 ([2]; [Ab] 1 µg/mL): 65 | dC/dT ([2]; [Ab] 1 µg/mL): 45 | F=the rate of change in glucose concentration in relation to the reference ([2]; [Ab] 2 µg/mL): 65% | Glucose concentration t=60 ([2]; [Ab] 2 µg/mL): 147 | Glucose concentration t=120 ([2]; [Ab] 2 µg/mL): 151 | Glucose concentration t=180 ([2]; [Ab] 2 µg/mL): 67 | dC/dT ([2]; [Ab] 2 µg/mL): 40 | F=the rate of change in glucose concentration in relation to the reference ([2]; [Ab] 4 µg/mL): 69% | Glucose concentration t=60 ([2]; [Ab] 4 µg/mL): 147 | Glucose concentration t=120 ([2]; [Ab] 4 µg/mL): 145 | Glucose concentration t=180 ([2]; [Ab] 4 µg/mL): 61 | dC/dT ([2]; [Ab] 4 µg/mL): 43 | F=the rate of change in glucose concentration in relation to the reference ([2]; [Ab] 8 µg/mL): 87% | Glucose concentration t=60 ([2]; [Ab] 8 µg/mL): 159 | Glucose concentration t=120 ([2]; [Ab] 8 µg/mL): 147 | Glucose concentration t=180 ([2]; [Ab] 8 µg/mL): 51 | dC/dT ([2]; [Ab] 8 µg/mL): 54 | F=the rate of change in glucose concentration in relation to the reference ([2]; [Ab] 0,125 µg/mL): 71% | Glucose concentration t=60 ([2]; [Ab] 0,125 µg/mL): 153 | Glucose concentration t=120 ([2]; [Ab] 0,125 µg/mL): 154 | Glucose concentration t=180 ([2]; [Ab] 0,125 µg/mL): 65 | dC/dT ([2]; [Ab] 0,125 µg/mL): 44 | F=the rate of change in glucose concentration in relation to the reference ([2]; [Ab] 0,0625 µg/mL): 67% | Glucose concentration t=60 ([2]; [Ab] 0,0625 µg/mL): 148 | Glucose concentration t=120 ([2]; [Ab] 0,0625 µg/mL): 144 | Glucose concentration t=180 ([2]; [Ab] 0,0625 µg/mL): 65 | dC/dT ([2]; [Ab] 0,0625 µg/mL): 42 | MIC EUCAST, range in parentheses [3, 4]: 1 to 4 µg/mL | MIC EUCAST [3, 5]: 2 µg/mL (≈ 1.38 µM)

Reference: patent EP3717657B1, “A SYSTEM FOR ASSESSING MICROBIAL SUSCEPTIBILITY TO ANTIBIOTIC AGENTS” (Ascilion AB, priority 2017, dated 2019)
